According to PMC4180279 (Biochemistry, 2014):
No end group written: not given here.

Experiments:
[1] = Solubility / aggregation observed in ITC experiments; format: physicochemical; settings: limits use of peptide as titrant in ITC; 50 mM Tris (pH 7.5), 50 mM NaCl, 5 mM CaCl2
Experimental: (§1) ITC experiments were performed using a MicroCal ITC200 instrument. […] If necessary, minor adjustments were made to the pH of the peptide solution. […] One injection of 0.2 μL, followed by 20 injections of 2 μL, was made with a 180 s spacing to allow the baseline to return after each injection. All experiments were performed in triplicate. The data were analyzed with a one-site (three-parameter) curve fitting conducted using the MicroCal-supported ITC module within Origin version 7.

[2] = biological target: T1, NCS-1 (Homo sapiens, UniProt P62166); assay: Isothermal titration calorimetry, NCS-1 titrated into PQIQ peptide; format: binding; settings: 100 μM PQIQ in cell, 1 mM NCS-1 in syringe, 25 °C, pH 7.5; complex aggregates
T1 construct: His tag (TEV-cleavable) (N, cleaved yes); made in house; host or cells: Escherichia coli BL21(DE3)
T1 sequence (P62166 whole entry, species assumed): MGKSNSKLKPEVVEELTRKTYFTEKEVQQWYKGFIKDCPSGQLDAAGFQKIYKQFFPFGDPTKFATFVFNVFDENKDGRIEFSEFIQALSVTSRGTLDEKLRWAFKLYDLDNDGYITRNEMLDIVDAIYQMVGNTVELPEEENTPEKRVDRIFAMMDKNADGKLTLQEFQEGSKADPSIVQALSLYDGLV
Experimental: The peptide used corresponds to residues 1903–1929 of the human P/Q receptor. The synthetic P/Q peptide, […] (hereafter termed the PQIQ peptide), was purchased from GenicBio. The peptide was delivered >95% pure.
Expression was induced overnight at 18 °C; cells were harvested, resuspended into lysis buffer [50 mM Tris-HCl (pH 7.5), 200 mM NaCl, 5 mM CaCl2, and Complete EDTA Free Protease Inhibitor (Roche Applied Science)], lysed, centrifuged, filtered, and loaded onto the Hiprep 16/10 Phenyl FF High Sub (GE Healthcare) column that was pre-equilibrated with buffer A [50 mM Tris-HCl (pH 7.5), 200 mM NaCl, and 5 mM CaCl2]. The column was extensively washed with buffer A and NCS-1 eluted using Milli-Q water. […] The purity of the sample was assessed by sodium dodecyl sulfate–polyacrylamide gel electrophoresis (SDS–PAGE) and deemed to be >95% pure. The eluted peak was concentrated and stored at −80 °C.
as §1

solubility [1]: limitations in PQIQ peptide solubility
Sequence: TVGKIYAAMMIMEYYRQSKAKKLQAMR [PQIQ peptide]
equilibrium binding constant [2]: not possible to obtain reliable equilibrium binding constants
